Patent publication US10188634B2, “3-(3H-imidazo[4,5-C]pyridin-2-yl)-1 H-pyrazolo[4,3-B]pyridines and therapeutic uses thereof” (Samumed, LLC, priority 2015, dated 2019)

Experiments:
SW480 colon cancer cells = experiment: Cell viability assay (CellTiter-Blue) in SW480 colon cancer cells; assay type: cell-based; conditions: Homo sapiens, 96 h; for inhibition at 10 µM: four days, CellTiter-Blue, read-out: percent inhibition at 10 μM (given for EC50 of >10 μM); for EC50: four days incubation, CellTiter-Blue cell viability
Outline: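 About 2×10^3 SW480 colon cancer cells per well were exposed to compound (8-point 1:3 dilutions, 10 μM to 0.004 μM) for four days at 37 °C. Viability was read by CellTiter-Blue resazurin reduction (~3 h, Ex 560/Em 590). EC50 from nonlinear regression; above 10 μM, % inhibition at 10 μM is reported.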

[1] = tested on: LL29 cells (primary human fibroblasts derived from IPF patients) treated with TGF-β1, α-smooth muscle actin; experiment: Inhibition of the fibrotic process: αSMA staining in TGF-β1 treated primary human fibroblasts from IPF patients (LL29 cells); assay type: cell-based; conditions: Fibroblast, 96 h; for EC50: LL29 cells treated with TGF-β1 (20 ng/mL), 4 days; for inhibition at 10 µM: LL29 cells treated with TGF-β1, 4 days, read-out: percent inhibition in brackets (given for EC50 >10 μM)

SMILES: CN1CCN(c2cncc3[nH]c(-c4n[nH]c5ccc(-c6cncc(NC(=O)C7CCCC7)c6)nc45)nc23)CC1 [Compound 246, N-(5-(3-(7-(4-Methylpiperazin-1-yl)-3H-imidazo[4,5-c]pyridin-2-yl)-1H-pyrazolo[4,3-b]pyridin-5-yl)pyridin-3-yl)cyclopentanecarboxamide]
- inhibition at 10 µM (SW480 colon cancer cells): 1%
- EC50 (SW480 colon cancer cells): > 10 µM
- EC50 [1]: > 10 µM
- inhibition at 10 µM [1]: 48.7%

SMILES: CN1CCN(c2cncc3[nH]c(-c4n[nH]c5ccc(-c6cncnc6)nc45)nc23)CC1 [Compound 251, 3-(7-(4-Methylpiperazin-1-yl)-3H-imidazo[4,5-c]pyridin-2-yl)-5-(pyrimidin-5-yl)-1H-pyrazolo[4,3-b]pyridine]
- inhibition at 10 µM (SW480 colon cancer cells): 0%
- EC50 (SW480 colon cancer cells): > 10 µM
- EC50 [1]: > 10 µM
- inhibition at 10 µM [1]: 44.6%

SMILES: O=C(Nc1cncc(-c2ccc3[nH]nc(-c4nc5c(-c6ccsc6)cncc5[nH]4)c3n2)c1)c1ccccc1 [Compound 263, N-(5-(3-(7-(Thiophen-3-yl)-3H-imidazo[4,5-c]pyridin-2-yl)-1H-pyrazolo[4,3-b]pyridin-5-yl)pyridin-3-yl)benzamide]
- inhibition at 10 µM (SW480 colon cancer cells): 0.3%
- EC50 (SW480 colon cancer cells): > 10 µM
- EC50 [1]: > 10 µM
- inhibition at 10 µM [1]: 0%

SMILES: CCNCc1cncc(-c2ccc3[nH]nc(-c4nc5c(-c6ccoc6)cncc5[nH]4)c3n2)c1 [Compound 286, N-((5-(3-(7-(Furan-3-yl)-3H-imidazo[4,5-c]pyridin-2-yl)-1H-pyrazolo[4,3-b]pyridin-5-yl)pyridin-3-yl)methyl)ethanamine]
- EC50 (SW480 colon cancer cells): 2.13 µM
- EC50 [1]: > 10 µM
- inhibition at 10 µM [1]: 0%

SMILES: CCCCC(=O)Nc1cncc(-c2ccc3[nH]nc(-c4nc5c(-c6ccoc6)cncc5[nH]4)c3n2)c1 [Compound 299, N-(5-(3-(7-(Furan-3-yl)-3H-imidazo[4,5-c]pyridin-2-yl)-1H-pyrazolo[4,3-b]pyridin-5-yl)pyridin-3-yl)pentanamide]
- inhibition at 10 µM (SW480 colon cancer cells): 6.7%
- EC50 (SW480 colon cancer cells): > 10 µM
- EC50 [1]: > 10 µM
- inhibition at 10 µM [1]: 38.1%

SMILES: CCC(=O)Nc1cncc(-c2ccc3[nH]nc(-c4nc5c(-c6cccs6)cncc5[nH]4)c3n2)c1 [Compound 309, N-(5-(3-(7-(Thiophen-2-yl)-3H-imidazo[4,5-c]pyridin-2-yl)-1H-pyrazolo[4,3-b]pyridin-5-yl)pyridin-3-yl)propionamide]
- inhibition at 10 µM (SW480 colon cancer cells): 0%
- EC50 (SW480 colon cancer cells): > 10 µM
- EC50 [1]: > 10 µM
- inhibition at 10 µM [1]: 0%

SMILES: CN(C)Cc1cncc(-c2ccc3[nH]nc(-c4nc5c(-c6cccs6)cncc5[nH]4)c3n2)c1 [Compound 321, N,N-dimethyl-1-(5-(3-(7-(thiophen-2-yl)-3H-imidazo[4,5-c]pyridin-2-yl)-1H-pyrazolo[4,3-b]pyridin-5-yl)pyridin-3-yl)methanamine]
- EC50 (SW480 colon cancer cells): 4.74 µM
- EC50 [1]: 7.46 µM

SMILES: c1csc(-c2cncc3[nH]c(-c4n[nH]c5ccc(-c6ccncc6)nc45)nc23)c1 [Compound 326, 5-(Pyridin-4-yl)-3-(7-(thiophen-2-yl)-3H-imidazo[4,5-c]pyridin-2-yl)-1H-pyrazolo[4,3-b]pyridine]
- inhibition at 10 µM (SW480 colon cancer cells): 0%
- EC50 (SW480 colon cancer cells): > 10 µM
- EC50 [1]: > 10 µM
- inhibition at 10 µM [1]: 26.6%

SMILES: O=C(Nc1cncc(-c2ccc3[nH]nc(-c4nc5c(-c6cccs6)cncc5[nH]4)c3n2)c1)C1CC1 [Compound 328, N-(5-(3-(7-(Thiophen-2-yl)-3H-imidazo[4,5-c]pyridin-2-yl)-1H-pyrazolo[4,3-b]pyridin-5-yl)pyridin-3-yl)cyclopropanecarboxamide]
- inhibition at 10 µM (SW480 colon cancer cells): 10%
- EC50 (SW480 colon cancer cells): > 10 µM
- EC50 [1]: > 10 µM
- inhibition at 10 µM [1]: 0%

SMILES: Cc1ccc(-c2cncc3[nH]c(-c4n[nH]c5ccc(-c6cncc(NC(=O)C(C)C)c6)nc45)nc23)s1 [Compound 373, N-(5-(3-(7-(5-Methylthiophen-2-yl)-3H-imidazo[4,5-c]pyridin-2-yl)-1H-pyrazolo[4,3-b]pyridin-5-yl)pyridin-3-yl)isobutyramide]
- inhibition at 10 µM (SW480 colon cancer cells): 2.6%
- EC50 (SW480 colon cancer cells): > 10 µM
- EC50 [1]: 2.63 µM

SMILES: Cc1ccc(-c2cncc3[nH]c(-c4n[nH]c5ccc(-c6cncc(NC(=O)C7CCCC7)c6)nc45)nc23)s1 [Compound 386, N-(5-(3-(7-(5-Methylthiophen-2-yl)-3H-imidazo[4,5-c]pyridin-2-yl)-1H-pyrazolo[4,3-b]pyridin-5-yl)pyridin-3-yl)cyclopentanecarboxamide]
- inhibition at 10 µM (SW480 colon cancer cells): 0.9%
- EC50 (SW480 colon cancer cells): > 10 µM
- EC50 [1]: > 10 µM
- inhibition at 10 µM [1]: 0%

SMILES: CCNCc1cncc(-c2ccc3[nH]nc(-c4nc5c(-c6cc(F)cc(NCCN(C)C)c6)cncc5[nH]4)c3n2)c1 [Compound 426, N^1-(3-(2-(5-(5-((Ethylamino)methyl)pyridin-3-yl)-1H-pyrazolo[4,3-b]pyridin-3-yl)-3H-imidazo[4,5-c]pyridin-7-yl)-5-fluorophenyl)-N^2,N^2-dimethylethane-1,2-diamine]
- inhibition at 10 µM (SW480 colon cancer cells): 4.4%
- EC50 (SW480 colon cancer cells): > 10 µM
- EC50 [1]: 5.09 µM

SMILES: CCCCC(=O)Nc1cncc(-c2ccc3[nH]nc(-c4nc5c(-c6cc(F)cc(NCCN(C)C)c6)cncc5[nH]4)c3n2)c1 [Compound 439, N-(5-(3-(7-(3-((2-(Dimethylamino)ethyl)amino)-5-fluorophenyl)-3H-imidazo[4,5-c]pyridin-2-yl)-1H-pyrazolo[4,3-b]pyridin-5-yl)pyridin-3-yl)pentanamide]
- inhibition at 10 µM (SW480 colon cancer cells): 1.3%
- EC50 (SW480 colon cancer cells): > 10 µM
- EC50 [1]: 0.248 µM

SMILES: CS(=O)(=O)NCc1cc(F)cc(-c2cncc3[nH]c(-c4n[nH]c5ccc(-c6cncc(NC(=O)c7ccccc7)c6)nc45)nc23)c1 [Compound 459, N-(5-(3-(7-(3-Fluoro-5-(methylsulfonamidomethyl)phenyl)-3H-imidazo[4,5-c]pyridin-2-yl)-1H-pyrazolo[4,3-b]pyridin-5-yl)pyridin-3-yl)benzamide]
- inhibition at 10 µM (SW480 colon cancer cells): 1.8%
- EC50 (SW480 colon cancer cells): > 10 µM
- EC50 [1]: > 10 µM
- inhibition at 10 µM [1]: 0%

SMILES: CCCC(=O)Nc1cncc(-c2ccc3[nH]nc(-c4nc5c(-c6cc(F)cc(CNS(C)(=O)=O)c6)cncc5[nH]4)c3n2)c1 [Compound 465, N-(5-(3-(7-(3-Fluoro-5-(methylsulfonamidomethyl)phenyl)-3H-imidazo[4,5-c]pyridin-2-yl)-1H-pyrazolo[4,3-b]pyridin-5-yl)pyridin-3-yl)butyramide]
- inhibition at 10 µM (SW480 colon cancer cells): 1.8%
- EC50 (SW480 colon cancer cells): > 10 µM
- EC50 [1]: 2.35 µM

SMILES: CS(=O)(=O)NCc1cc(F)cc(-c2cncc3[nH]c(-c4n[nH]c5ccc(-c6cncc(CNCc7ccccc7)c6)nc45)nc23)c1 [Compound 472, N-(3-(2-(5-(5-((Benzylamino)methyl)pyridin-3-yl)-1H-pyrazolo[4,3-b]pyridin-3-yl)-3H-imidazo[4,5-c]pyridin-7-yl)-5-fluorobenzyl)methanesulfonamide]
- inhibition at 10 µM (SW480 colon cancer cells): 0%
- EC50 (SW480 colon cancer cells): > 10 µM
- EC50 [1]: 7.27 µM

SMILES: CS(=O)(=O)NCc1cc(F)cc(-c2cncc3[nH]c(-c4n[nH]c5ccc(-c6cncnc6)nc45)nc23)c1 [Compound 475, N-(3-Fluoro-5-(2-(5-(pyrimidin-5-yl)-1H-pyrazolo[4,3-b]pyridin-3-yl)-3H-imidazo[4,5-c]pyridin-7-yl)benzyl)methanesulfonamide]
- inhibition at 10 µM (SW480 colon cancer cells): 0.9%
- EC50 (SW480 colon cancer cells): > 10 µM
- EC50 [1]: 2.44 µM

SMILES: Fc1cccc(-c2cncc3[nH]c(-c4n[nH]c5ccc(C6CCNCC6)nc45)nc23)c1 [Compound 477, 3-(7-(3-Fluorophenyl)-3H-imidazo[4,5-c]pyridin-2-yl)-5-(piperidin-4-yl)-1H-pyrazolo[4,3-b]pyridine]
- inhibition at 10 µM (SW480 colon cancer cells): 1.8%
- EC50 (SW480 colon cancer cells): > 10 µM
- EC50 [1]: 4.56 µM

SMILES: Fc1cccc(-c2cncc3[nH]c(-c4n[nH]c5ccc(C6=CCNCC6)nc45)nc23)c1 [Compound 478, 3-(7-(3-Fluorophenyl)-3H-imidazo[4,5-c]pyridin-2-yl)-5-(1,2,3,6-tetrahydropyridin-4-yl)-1H-pyrazolo[4,3-b]pyridine]
- inhibition at 10 µM (SW480 colon cancer cells): 0%
- EC50 (SW480 colon cancer cells): > 10 µM
- EC50 [1]: 4.99 µM

SMILES: Fc1cccc(-c2cncc3[nH]c(-c4n[nH]c5ccc(-c6cn[nH]c6)nc45)nc23)c1 [Compound 479, 3-(7-(3-Fluorophenyl)-3H-imidazo[4,5-c]pyridin-2-yl)-5-(1H-pyrazol-4-yl)-1H-pyrazolo[4,3-b]pyridine]
- inhibition at 10 µM (SW480 colon cancer cells): 5.5%
- EC50 (SW480 colon cancer cells): > 10 µM
- EC50 [1]: > 10 µM
- inhibition at 10 µM [1]: 36.2%

SMILES: Cn1cc(-c2ccc3[nH]nc(-c4nc5c(-c6cccc(F)c6)cncc5[nH]4)c3n2)cn1 [Compound 480, 3-(7-(3-Fluorophenyl)-3H-imidazo[4,5-c]pyridin-2-yl)-5-(1-methyl-1H-pyrazol-4-yl)-1H-pyrazolo[4,3-b]pyridine]
- inhibition at 10 µM (SW480 colon cancer cells): 1.7%
- EC50 (SW480 colon cancer cells): > 10 µM
- EC50 [1]: > 10 µM
- inhibition at 10 µM [1]: 4.2%

SMILES: Cc1ncc(-c2ccc3[nH]nc(-c4nc5c(-c6cccc(F)c6)cncc5[nH]4)c3n2)n1C [Compound 481, 5-(1,2-Dimethyl-1H-imidazol-5-yl)-3-(7-(3-fluorophenyl)-3H-imidazo[4,5-c]pyridin-2-yl)-1H-pyrazolo[4,3-b]pyridine]
- EC50 (SW480 colon cancer cells): 2.3 µM
- EC50 [1]: > 10 µM
- inhibition at 10 µM [1]: 4.5%

SMILES: NC1CN(c2cncc(-c3ccc4[nH]nc(-c5nc6c(-c7cccc(F)c7)cncc6[nH]5)c4n3)n2)C1 [Compound 482, 1-(6-(3-(7-(3-Fluorophenyl)-3H-imidazo[4,5-c]pyridin-2-yl)-1H-pyrazolo[4,3-b]pyridin-5-yl)pyrazin-2-yl)azetidin-3-amine]
- inhibition at 10 µM (SW480 colon cancer cells): 3.8%
- EC50 (SW480 colon cancer cells): > 10 µM
- EC50 [1]: > 10 µM
- inhibition at 10 µM [1]: 16.7%
